Assay results taken from US7268149B2 (Wyeth, priority 2002, dated 2007).
“And” between values parts separate entries of the source, which are not always exact repeats. Equal entries are not always repeated.

Key:
[1] = tested on: rat uterine decidualization; test: Rat decidualization assay; type: in vivo; conditions: for EC50 for uterine wet weight (decidual response), individual studies: ovariectomized female Sprague-Dawley rats, once daily for seven days
Description: b. Animals (RACUC Protocol #5002)
The animals are treated once daily for seven days.
Uteri are removed and trimmed of fat.
Body weight: Mean total animal body weight (default-kg)
Decidual response: [(D−C)/C]×100%

[2] = target: T1, androgen receptor (AR) (Mus musculus, UniProt P19091); test: Androgen receptor agonistic/antagonistic activity, PRE-tk-luciferase reporter in L929 cells; type: cell-based
T1 construct: L929 cells which express the AR but not the PR; endogenous in cells; host or cells: L929 cells infected with an adenovirus PRE-tk-luciferase reporter
T1 sequence (P19091 1-899): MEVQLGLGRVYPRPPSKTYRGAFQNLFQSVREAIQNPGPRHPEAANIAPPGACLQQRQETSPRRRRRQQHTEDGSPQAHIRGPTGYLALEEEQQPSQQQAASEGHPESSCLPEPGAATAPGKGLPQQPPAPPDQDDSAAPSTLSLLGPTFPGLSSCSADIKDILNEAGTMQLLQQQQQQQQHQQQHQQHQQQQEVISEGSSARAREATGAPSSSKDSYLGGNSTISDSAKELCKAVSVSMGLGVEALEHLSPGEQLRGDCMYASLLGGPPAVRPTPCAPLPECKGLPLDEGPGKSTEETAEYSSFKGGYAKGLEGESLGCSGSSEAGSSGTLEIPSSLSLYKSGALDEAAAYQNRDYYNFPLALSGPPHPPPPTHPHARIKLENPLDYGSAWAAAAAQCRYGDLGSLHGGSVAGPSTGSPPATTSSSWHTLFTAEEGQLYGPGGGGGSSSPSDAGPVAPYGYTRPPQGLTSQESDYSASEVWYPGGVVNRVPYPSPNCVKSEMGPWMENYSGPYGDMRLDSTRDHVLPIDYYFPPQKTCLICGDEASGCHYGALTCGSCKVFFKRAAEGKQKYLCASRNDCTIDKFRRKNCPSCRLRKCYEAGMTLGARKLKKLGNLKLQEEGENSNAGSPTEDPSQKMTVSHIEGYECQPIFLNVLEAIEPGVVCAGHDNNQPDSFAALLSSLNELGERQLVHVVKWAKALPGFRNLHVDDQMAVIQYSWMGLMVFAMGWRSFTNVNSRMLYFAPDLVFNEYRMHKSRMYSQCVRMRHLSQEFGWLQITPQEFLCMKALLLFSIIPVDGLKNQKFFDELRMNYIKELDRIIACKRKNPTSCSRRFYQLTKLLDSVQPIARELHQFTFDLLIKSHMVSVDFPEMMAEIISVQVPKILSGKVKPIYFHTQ
Description: The androgen receptor (AR) agonistic and antagonistic activity of the compositions of the invention in the L929 cells which express the AR but not the PR was evaluated as described in Zhang et al., Steroids, 65(10-11): 637-643 (October-November 2000).
Cells were plated in 96-well plates at 25,000 cells/well in DMEM (BioWhittaker) with 10% (v/v) fetal bovine serum (FBS). The next day, cells were infected with the adenovirus PRE-tk-luciferase reporter construct (2×10^9 pfu/ml particles) and kept in DMEM containing 10% charcoal stripped FBS for an additional 24 hours. […] To test the anti-androgenic activity, cells were co-treated with 3 nM DHT. Luciferase activity was measured 24 hours following the treatment.

[3] = tested on: eczema; test: Conditioning the skin of a human patient with severe eczema; type: in vivo; conditions: about 50 mg daily
Description: A human patient having a severe form of eczema is treated according to the present invention. Specifically, about 50 mg of 5-(4,4-dimethyl-2-thioxo-1,4-dihydro-2H-3,1-benzoxazin-6-yl)-1-methyl-1H-pyrrole-2-carbonitrile is delivered to the patient daily.

[4] = tested on: acne vulgaris; test: Treatment of acne vulgaris in a human patient; type: in vivo; conditions: oral tablet about 20 mg daily
Description: A human patient having acne vulgaris is treated according to the present invention. Specifically, 5-(4,4-dimethyl-2-thioxo-1,4-dihydro-2H-3,1-benzoxazin-6-yl)-1-methyl-1H-pyrrole-2-carbonitrile is orally delivered to the patient daily. Delivery is in the form of a tablet formulated to contain about 20 mg of 5-(4,4-dimethyl-2-thioxo-1,4-dihydro-2H-3,1-benzoxazin-6-yl)-1-methyl-1H-pyrrole-2-carbonitrile.

[5] = tested on: alkaline phosphatase activity in T47D cells; test: T47D cell alkaline phosphatase assay; type: cell-based; conditions: Homo sapiens, agonist mode, read-out: EC50 in the T47D alkaline phosphatase assay, test compounds
Description: 4. T47D Cell Alkaline Phosphatase Assay
The purpose of this assay is to identify progestins or antiprogestins by determining a compound's effect on alkaline phosphatase activity in T47D cells.
a. Culture Medium: DMEM:F12 (1:1) (GIBCO, BRL) supplemented with 5% (v/v) charcoal stripped fetal bovine serum (not heat-inactivated), 100 U/ml penicillin, 100 μg/ml streptomycin, and 2 mM GlutaMax (GIBCO, BRL).
b. Alkaline Phosphatase Assay Buffer:
I. 0.1 M Tris-HCl, pH 9.8, containing 0.2% Triton X-100
II. 0.1 M Tris-HCl, pH 9.8 containing 4 mM p-nitrophenyl phosphate (Sigma).
c. Cell Culture and Treatment:
Frozen T47D cells were thawed in a 37° C. water bath and diluted to 280,000 cells/ml in culture medium. To each well in a 96-well plate (Falcon, Becton Dickinson Labware), 180 μl of diluted cell suspension was added. Twenty μl of reference or test compounds diluted in the culture medium was then added to each well. […] The cells were incubated at 37° C. in a 5% CO2/humidified atmosphere for 24 hr.
d. Alkaline Phosphatase Enzyme Assay:
At the end of treatment, the medium was removed from the plate and […] of assay buffer I was added to each well. The plates were shaken in a titer plate shaker for 15 min. Then 150 μl of assay buffer II was added to each well.
e. Analysis of Results: Analysis of Dose-response Data
For reference and test compounds, a dose response curve is generated for dose (X-axis) vs. the rate of enzyme reaction (slope) (Y-axis). Square root-transformed data are used for analysis of variance and nonlinear dose response curve fitting for both agonist and antagonist modes. Huber weighting is used to downweight the effects of outliers. EC50 or IC50 values are calculated from the retransformed values.

[6] = tested on: T47D cells; test: T47D cell proliferation assay (BrdU incorporation); type: cell-based
Description: 3. T47D cell Proliferation Assay
The objective of this assay is the determination of progestational and antiprogestational potency by using a cell proliferation assay in T47D cells. A compound's effect on DNA synthesis in T47D cells is measured.
a. Growth Medium: DMEM:F12 (1:1) (GIBCO, BRL) supplemented with 10% (v/v) fetal bovine serum (not heat-inactivated), 100 U/ml penicillin, […], and 2 mM GlutaMax (GIBCO, BRL).
b. Treatment Medium: Minimum Essential Medium (MEM) (#51200-038GIBCO, BRL) phenol red-free supplemented with 0.5% charcoal stripped fetal bovine serum, 100 U/ml penicillin, […] streptomycin, and 2 mM GlutaMax (GIBCO, BRL).
Stock T47 D cells are maintained in growth medium. […]
At the end of BrdU labeling, the medium is removed and BrdU incorporation is measured using a cell proliferation ELISA kit (#RPN 250, Amersham Life Science) according to manufacturer's instructions. […] Then 25 μl of 1 M sulfuric acid is added to each well to stop color reaction and optical density is read in a plate reader at 450 nm within 5 min.
Square root-transformed data are used for analysis of variance and nonlinear dose response curve fitting for both agonist and antagonist modes. […] EC50 or IC50 values are calculated from the retransformed values. […]

Structure (SMILES) | EC50 [5] | EC50 for uterine wet weight (decidual response), individual studies ([1]; s.c.) | other results
C#C[C@]1(O)CC[C@H]2[C@@H]3CCC4=CC(=O)CC[C@@H]4[C@H]3C(=C)C[C@@]21CC [3-Ketodesogestrel] | – | 0.10 mg/kg, s.c. and 0.06 mg/kg, s.c. and 0.11 mg/kg, s.c. | Estimated average EC50 for uterine weight (decidual response) ([1]; average of dose-response curves, ovariectomized rats, s.c.): 0.10 mg/kg, s.c.
Cn1c(C#N)ccc1-c1ccc2c(c1)C(C)(C)OC(=S)N2 [5-(4,4-dimethyl-2-thioxo-1,4-dihydro-2H-3,1-benzoxazin-6-yl)-1-methyl-1H-pyrrole-2-carbonitrile] | – | – | AR agonistic activity ([2]; at the maximum concentration tested (10 nM)): only marginal agonistic activity; AR antagonistic activity ([2]; nine point dose response, co-treated with 3 nM DHT): significant antagonistic activity; Eczema outcome ([3]; after about 12 weeks): improvement in the eczema is observed; Dryness of the skin ([3]; thirty days after the treatment): a decrease in the dryness affected to the skin is noticed; Acne vulgaris outcome ([4]; after about 24 weeks): improvement in the acne vulgaris is observed; Presence of lesions caused by acne vulgaris ([4]; forty-five to sixty days after the treatment): a decrease in the presence of lesions caused by acne vulgaris is noticed
CCC1(CC)OC(=S)Nc2ccc(-c3ccc(C#N)n3C)cc21 [Example 2, 5-(4,4-Diethyl-2-thioxo-1,4-dihydro-2H-3,1-benzoxazin-6-yl)-1-methyl-1H-pyrrole-2-carbonitrile] | 0.1 nM | – | –
CCC1(C)OC(=S)Nc2ccc(-c3ccc(C#N)n3C)cc21 (centres unmarked) [Example 3, 5-(4-ethyl-4-methyl-2-thioxo-1,4-dihydro-2H-3,1-benzoxazin-6-yl)-1-methyl-1H-pyrrole-2-carbonitrile] | 0.1 nM | – | –
Cn1c(C#N)ccc1-c1ccc2c(c1)C(C(F)(F)F)(C(F)(F)F)OC(=S)N2 [Example 6, 1-Methyl-5-[2-thioxo-4,4-bis(trifluoromethyl)-1,4-dihydro-2H-3,1-benzoxazin-6-yl]-1H-pyrrole-2-carbonitrile] | < 10 nM | – | –
C#C[C@]1(O)CC[C@H]2[C@@H]3CCC4=CC(=O)CC[C@@H]4[C@H]3CC[C@@]21CC [Levonorgestrel] | – | 0.08 mg/kg, s.c. and 0.12 mg/kg, s.c. and 0.09 mg/kg, s.c. (2×) | –
CC(=O)O[C@]1(C(C)=O)CC[C@H]2[C@@H]3C[C@H](C)C4=CC(=O)CC[C@]4(C)[C@H]3CC[C@@]21C [MPA, medroxyprogesterone acetate] | – | 0.42 mg/kg, s.c. and 0.39 mg/kg, s.c. (2×) | –
CC(=O)[C@H]1CC[C@H]2[C@@H]3CCC4=CC(=O)CC[C@]4(C)[C@H]3CC[C@]12C [Progesterone] | – | 5.50 mg/kg, s.c. | –
CC#C[C@]1(O)CC[C@H]2[C@@H]3CCC4=CC(=O)CCC4=C3[C@@H](c3ccc(N(C)C)cc3)C[C@@]21C [RU486] | – | – | IC50 ([6]; read-out: IC50 (half-maximal decrease in trimegestone induced BrdU incorporation), antagonist mode, in the presence of 0.03 nM trimegestone): 0.016 nM and 0.018 nM; IC50 for uterine weight (decrease in EC50 progesterone induced decidual response) ([1]; ovariectomized rats, p.o., with EC50 dose of progesterone): 0.21 mg/kg, p.o. and 0.14 mg/kg, p.o.
C[C@H](O)C(=O)[C@@]1(C)CC[C@H]2[C@@H]3CCC4=CC(=O)CCC4=C3CC[C@@]21C [Trimegestone] | – | – | EC50 ([6]; agonist mode, individual studies, read-out: EC50 (half-maximal increase in BrdU incorporation)): 0.017 nM and 0.014 nM and 0.019 nM

The next lines start with results.

EC50 [5] | Structure (SMILES) | EC50 for uterine wet weight (decidual response), individual studies ([1]; s.c.) | other results
0.5 nM | Cn1c(C#N)ccc1-c1ccc2c(c1)C1(CCC1)OC(=S)N2 [Example 1, 1-Methyl-5-(2-thioxo-1,2-dihydrospiro[3,1-benzoxazine-4,1′-cyclobutan]-6-yl)-1H-pyrrole-2-carbonitrile] | – | –
0.3 nM | Cn1c(C#N)ccc1-c1ccc2c(c1)C1(CCCCC1)OC(=S)N2 [Example 4, 1-Methyl-5-(2-thioxo-1,2-dihydrospiro[3,1-benzoxazine-4,1′-cyclohexan]-6-yl)-1H-pyrrole-2-carbonitrile] | – | –
0.5 nM | Cn1c(C#N)ccc1-c1ccc2c(c1)C1(CCCC1)OC(=S)N2 [Example 5, 1-Methyl-5-(2-thioxo-1,2-dihydrospiro [3,1-benzoxazine-4,1′-cyclopentan]-6-yl)-1H-pyrrole-2-carbonitrile] | – | –
